“And” between values parts separate entries of the source, which are not always exact repeats. Equal values may be shown once.
Experiments:
Assay type in all cases: cell-based
[1] = molecular target: panel of 320 non-olfactory GPCRs (Homo sapiens, UniProt P50391)
[2] = molecular target: panel of 320 non-olfactory GPCRs (Homo sapiens, UniProt Q8TDV0)
[3] = molecular target: panel of 320 non-olfactory GPCRs (Homo sapiens, UniProt P22888)
[4] = molecular target: panel of 320 non-olfactory GPCRs (Homo sapiens, UniProt P29371)
[5] = molecular target: panel of 320 non-olfactory GPCRs (Homo sapiens, UniProt Q8WXD0)
[6] = molecular target: panel of 320 non-olfactory GPCRs (Homo sapiens, UniProt Q7Z601)
[7] = molecular target: panel of 320 non-olfactory GPCRs (Homo sapiens, UniProt O14626)
[8] = molecular target: panel of 320 non-olfactory GPCRs (Homo sapiens, UniProt O14842)
[9] = molecular target: panel of 320 non-olfactory GPCRs (Homo sapiens, UniProt P60893)
[10] = molecular target: panel of 320 non-olfactory GPCRs (Homo sapiens, UniProt P25100)
[11] = molecular target: panel of 320 non-olfactory GPCRs (Homo sapiens, UniProt P49682)
[12] = molecular target: panel of 320 non-olfactory GPCRs (Homo sapiens, UniProt Q99500)
[13] = molecular target: panel of 320 non-olfactory GPCRs (Homo sapiens, UniProt P50406)
[14] = molecular target: panel of 320 non-olfactory GPCRs (Homo sapiens, UniProt O14843)
[15] = molecular target: panel of 320 non-olfactory GPCRs (Homo sapiens, UniProt Q99705)
[16] = molecular target: panel of 320 non-olfactory GPCRs (Homo sapiens, UniProt Q9H244)
[17] = molecular target: panel of 320 non-olfactory GPCRs (Homo sapiens, UniProt O95665)
[18] = molecular target: panel of 320 non-olfactory GPCRs (Homo sapiens, UniProt P32247)
[19] = molecular target: panel of 320 non-olfactory GPCRs (Homo sapiens, UniProt P41586)
[20] = molecular target: panel of 320 non-olfactory GPCRs (Homo sapiens, UniProt Q96LA9)
[21] = molecular target: panel of 320 non-olfactory GPCRs (Homo sapiens, UniProt O60883)
[22] = molecular target: panel of 320 non-olfactory GPCRs (Homo sapiens, UniProt Q96RJ0)
[23] = molecular target: panel of 320 non-olfactory GPCRs (Homo sapiens, UniProt Q16581)
[24] = molecular target: panel of 320 non-olfactory GPCRs (Homo sapiens, UniProt Q8IWK6)
[25] = molecular target: panel of 320 non-olfactory GPCRs (Homo sapiens, UniProt Q8NFN8)
[26] = molecular target: panel of 320 non-olfactory GPCRs (Homo sapiens, UniProt P25021)
[27] = molecular target: panel of 320 non-olfactory GPCRs (Homo sapiens, UniProt P25024)
[28] = molecular target: panel of 320 non-olfactory GPCRs (Homo sapiens, UniProt P43115)
[29] = molecular target: panel of 320 non-olfactory GPCRs (Homo sapiens, UniProt Q9HBX9)
[30] = molecular target: panel of 320 non-olfactory GPCRs (Homo sapiens, UniProt P47872)
[31] = molecular target: panel of 320 non-olfactory GPCRs (Homo sapiens, UniProt Q9H1Y3)
[32] = molecular target: panel of 320 non-olfactory GPCRs (Homo sapiens, UniProt Q7Z602)
[33] = molecular target: panel of 320 non-olfactory GPCRs (Homo sapiens, UniProt P49286)
[34] = molecular target: panel of 320 non-olfactory GPCRs (Homo sapiens, UniProt P08908)
[35] = molecular target: panel of 320 non-olfactory GPCRs (Homo sapiens, UniProt Q9Y271)
[36] = molecular target: panel of 320 non-olfactory GPCRs (Homo sapiens, UniProt P21462)
[37] = molecular target: panel of 320 non-olfactory GPCRs (Homo sapiens, UniProt Q9H228)
Further: test concentration or dose not given here.

panel of 320 non-olfactory GPCRs (Homo sapiens, UniProt P43115), sequence (P43115 whole entry): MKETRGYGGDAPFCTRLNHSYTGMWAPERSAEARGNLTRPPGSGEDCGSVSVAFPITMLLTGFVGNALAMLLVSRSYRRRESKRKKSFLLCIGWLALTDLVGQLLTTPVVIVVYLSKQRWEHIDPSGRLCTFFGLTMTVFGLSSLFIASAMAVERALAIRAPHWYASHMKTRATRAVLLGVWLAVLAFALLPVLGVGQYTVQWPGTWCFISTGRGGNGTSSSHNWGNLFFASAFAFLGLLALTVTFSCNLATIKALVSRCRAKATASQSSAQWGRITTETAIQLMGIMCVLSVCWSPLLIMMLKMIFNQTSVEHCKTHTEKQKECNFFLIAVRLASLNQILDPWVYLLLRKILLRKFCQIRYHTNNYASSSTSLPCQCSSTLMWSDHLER
panel of 320 non-olfactory GPCRs (Homo sapiens, UniProt P08908), sequence (P08908 whole entry): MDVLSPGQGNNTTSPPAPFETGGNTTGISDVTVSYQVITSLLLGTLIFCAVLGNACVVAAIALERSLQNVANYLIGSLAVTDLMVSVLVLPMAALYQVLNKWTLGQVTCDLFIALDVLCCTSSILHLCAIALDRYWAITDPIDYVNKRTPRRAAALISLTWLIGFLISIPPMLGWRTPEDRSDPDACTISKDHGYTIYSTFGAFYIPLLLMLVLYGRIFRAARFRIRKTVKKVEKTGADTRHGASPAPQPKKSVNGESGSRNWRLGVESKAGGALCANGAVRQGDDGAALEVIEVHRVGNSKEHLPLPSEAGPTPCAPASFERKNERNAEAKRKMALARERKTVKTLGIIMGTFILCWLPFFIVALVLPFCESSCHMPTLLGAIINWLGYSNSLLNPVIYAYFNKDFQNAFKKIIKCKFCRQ
panel of 320 non-olfactory GPCRs (Homo sapiens, UniProt Q99705), sequence (Q99705 whole entry): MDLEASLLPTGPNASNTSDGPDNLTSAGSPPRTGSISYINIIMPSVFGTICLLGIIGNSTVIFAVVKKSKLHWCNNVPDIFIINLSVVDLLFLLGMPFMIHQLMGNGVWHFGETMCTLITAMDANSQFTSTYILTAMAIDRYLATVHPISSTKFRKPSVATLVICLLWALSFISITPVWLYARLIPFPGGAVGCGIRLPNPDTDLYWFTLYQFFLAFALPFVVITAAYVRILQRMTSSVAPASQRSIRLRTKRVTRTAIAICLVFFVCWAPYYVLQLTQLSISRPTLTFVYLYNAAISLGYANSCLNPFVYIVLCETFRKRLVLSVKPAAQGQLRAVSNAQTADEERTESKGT
panel of 320 non-olfactory GPCRs (Homo sapiens, UniProt O60883), sequence (O60883 26-481): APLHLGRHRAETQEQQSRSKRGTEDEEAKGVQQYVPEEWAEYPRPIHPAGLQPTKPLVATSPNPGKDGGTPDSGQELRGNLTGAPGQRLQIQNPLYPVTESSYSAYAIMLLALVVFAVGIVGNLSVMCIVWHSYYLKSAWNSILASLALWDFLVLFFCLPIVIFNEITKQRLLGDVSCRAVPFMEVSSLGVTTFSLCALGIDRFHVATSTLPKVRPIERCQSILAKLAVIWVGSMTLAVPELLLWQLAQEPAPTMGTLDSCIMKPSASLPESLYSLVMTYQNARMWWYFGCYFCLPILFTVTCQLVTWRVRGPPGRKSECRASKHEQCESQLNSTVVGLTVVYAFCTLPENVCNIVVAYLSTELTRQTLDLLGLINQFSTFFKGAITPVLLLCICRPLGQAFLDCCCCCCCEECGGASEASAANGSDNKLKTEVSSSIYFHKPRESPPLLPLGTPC
panel of 320 non-olfactory GPCRs (Homo sapiens, UniProt P50406), sequence (P50406 whole entry): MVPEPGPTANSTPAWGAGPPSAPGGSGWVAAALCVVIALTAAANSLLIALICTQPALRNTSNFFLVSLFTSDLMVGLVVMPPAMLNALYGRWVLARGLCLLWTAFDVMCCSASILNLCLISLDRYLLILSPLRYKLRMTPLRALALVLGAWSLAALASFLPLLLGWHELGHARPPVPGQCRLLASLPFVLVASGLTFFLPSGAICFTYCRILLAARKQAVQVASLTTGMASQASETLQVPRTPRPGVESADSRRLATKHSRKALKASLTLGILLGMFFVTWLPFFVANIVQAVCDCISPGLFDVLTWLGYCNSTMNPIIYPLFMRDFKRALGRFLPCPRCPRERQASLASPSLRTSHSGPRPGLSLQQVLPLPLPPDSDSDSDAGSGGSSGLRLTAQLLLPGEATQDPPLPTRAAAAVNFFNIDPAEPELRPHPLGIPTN
panel of 320 non-olfactory GPCRs (Homo sapiens, UniProt Q7Z601), sequence (Q7Z601 whole entry): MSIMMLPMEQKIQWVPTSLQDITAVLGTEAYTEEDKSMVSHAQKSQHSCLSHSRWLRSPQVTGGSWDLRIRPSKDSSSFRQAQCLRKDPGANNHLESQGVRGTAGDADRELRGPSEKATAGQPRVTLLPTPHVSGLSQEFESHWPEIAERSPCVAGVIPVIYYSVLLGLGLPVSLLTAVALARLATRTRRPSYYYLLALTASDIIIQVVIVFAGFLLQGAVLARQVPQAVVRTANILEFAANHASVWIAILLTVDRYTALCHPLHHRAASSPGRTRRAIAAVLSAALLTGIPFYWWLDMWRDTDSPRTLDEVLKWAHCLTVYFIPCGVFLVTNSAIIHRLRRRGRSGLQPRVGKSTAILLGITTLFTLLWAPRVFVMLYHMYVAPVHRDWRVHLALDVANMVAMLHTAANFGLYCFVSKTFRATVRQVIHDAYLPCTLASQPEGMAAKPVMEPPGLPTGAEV
panel of 320 non-olfactory GPCRs (Homo sapiens, UniProt Q7Z602), sequence (Q7Z602 whole entry): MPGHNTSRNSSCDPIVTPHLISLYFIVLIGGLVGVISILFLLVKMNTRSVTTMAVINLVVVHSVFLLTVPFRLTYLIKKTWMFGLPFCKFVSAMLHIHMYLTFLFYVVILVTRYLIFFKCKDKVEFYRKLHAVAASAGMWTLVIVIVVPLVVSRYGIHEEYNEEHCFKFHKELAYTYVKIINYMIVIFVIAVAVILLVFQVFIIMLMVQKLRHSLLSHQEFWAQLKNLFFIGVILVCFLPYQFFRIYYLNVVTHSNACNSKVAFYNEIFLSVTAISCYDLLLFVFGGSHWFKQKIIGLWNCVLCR
panel of 320 non-olfactory GPCRs (Homo sapiens, UniProt Q8NFN8), sequence (Q8NFN8 whole entry): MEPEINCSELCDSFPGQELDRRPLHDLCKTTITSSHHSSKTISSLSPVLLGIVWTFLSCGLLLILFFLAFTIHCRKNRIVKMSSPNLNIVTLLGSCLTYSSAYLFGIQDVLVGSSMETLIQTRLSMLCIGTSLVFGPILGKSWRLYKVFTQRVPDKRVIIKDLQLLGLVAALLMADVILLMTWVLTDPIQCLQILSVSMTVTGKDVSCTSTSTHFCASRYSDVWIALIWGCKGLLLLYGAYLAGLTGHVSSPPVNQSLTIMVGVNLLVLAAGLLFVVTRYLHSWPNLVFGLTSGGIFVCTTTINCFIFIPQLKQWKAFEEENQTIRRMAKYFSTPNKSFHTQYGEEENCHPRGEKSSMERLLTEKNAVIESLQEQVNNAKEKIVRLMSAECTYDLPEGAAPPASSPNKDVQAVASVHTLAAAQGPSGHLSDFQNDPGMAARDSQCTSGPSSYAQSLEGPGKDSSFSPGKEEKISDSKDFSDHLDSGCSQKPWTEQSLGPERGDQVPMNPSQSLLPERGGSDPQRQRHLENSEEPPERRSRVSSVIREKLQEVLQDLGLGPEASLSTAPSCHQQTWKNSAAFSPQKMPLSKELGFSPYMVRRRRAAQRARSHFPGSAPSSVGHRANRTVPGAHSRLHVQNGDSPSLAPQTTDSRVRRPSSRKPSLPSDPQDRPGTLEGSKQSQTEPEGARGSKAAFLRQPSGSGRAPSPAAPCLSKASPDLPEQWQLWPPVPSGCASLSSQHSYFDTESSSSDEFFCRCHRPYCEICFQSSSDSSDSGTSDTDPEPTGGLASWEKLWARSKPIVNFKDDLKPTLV
panel of 320 non-olfactory GPCRs (Homo sapiens, UniProt P49682), sequence (P49682 whole entry): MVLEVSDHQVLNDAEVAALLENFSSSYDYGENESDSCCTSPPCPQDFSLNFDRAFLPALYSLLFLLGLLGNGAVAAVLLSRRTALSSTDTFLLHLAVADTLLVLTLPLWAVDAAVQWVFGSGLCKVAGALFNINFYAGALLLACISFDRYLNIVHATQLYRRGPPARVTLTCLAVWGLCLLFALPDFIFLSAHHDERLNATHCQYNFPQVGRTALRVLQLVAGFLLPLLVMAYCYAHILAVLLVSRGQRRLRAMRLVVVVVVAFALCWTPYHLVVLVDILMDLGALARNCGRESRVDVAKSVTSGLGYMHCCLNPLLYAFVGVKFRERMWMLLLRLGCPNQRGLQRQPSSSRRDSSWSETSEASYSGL
panel of 320 non-olfactory GPCRs (Homo sapiens, UniProt Q8TDV0), sequence (Q8TDV0 whole entry): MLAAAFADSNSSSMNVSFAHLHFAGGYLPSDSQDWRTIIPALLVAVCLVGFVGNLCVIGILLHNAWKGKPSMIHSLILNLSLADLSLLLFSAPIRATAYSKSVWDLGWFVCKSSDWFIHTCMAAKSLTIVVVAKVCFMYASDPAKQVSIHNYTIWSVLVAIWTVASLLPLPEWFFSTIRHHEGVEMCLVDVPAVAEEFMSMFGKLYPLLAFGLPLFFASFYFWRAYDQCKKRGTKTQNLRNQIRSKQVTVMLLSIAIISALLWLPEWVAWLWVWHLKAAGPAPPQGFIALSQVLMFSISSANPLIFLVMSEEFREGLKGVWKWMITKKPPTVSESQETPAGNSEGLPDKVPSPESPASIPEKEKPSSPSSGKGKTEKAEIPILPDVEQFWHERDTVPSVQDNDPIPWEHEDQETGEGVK
panel of 320 non-olfactory GPCRs (Homo sapiens, UniProt O14843), sequence (O14843 whole entry): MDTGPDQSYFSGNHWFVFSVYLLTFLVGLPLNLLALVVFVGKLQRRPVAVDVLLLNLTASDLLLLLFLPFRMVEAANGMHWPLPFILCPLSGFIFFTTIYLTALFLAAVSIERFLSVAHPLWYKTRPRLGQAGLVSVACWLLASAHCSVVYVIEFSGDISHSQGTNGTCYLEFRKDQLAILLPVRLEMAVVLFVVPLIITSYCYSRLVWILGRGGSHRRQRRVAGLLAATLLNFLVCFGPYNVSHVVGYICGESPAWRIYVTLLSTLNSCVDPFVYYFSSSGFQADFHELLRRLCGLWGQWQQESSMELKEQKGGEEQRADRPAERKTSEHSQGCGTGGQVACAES

## COC(=O)[C@@](C)(NC(=O)c1cc(C)n(-c2cccc(C(F)(F)F)c2)n1)c1cccs1 [‘1350]
[1]
  Fold of Basal RLU: 1.3 and 1.4 and 1 and 0.7
[2]
  Fold of Basal RLU: 0.6 and 0.8 and 1.1
[3]
  Fold of Basal RLU: 0.9 and 1 and 1.1
[4]
  Fold of Basal RLU: 1.6 fold and 1.3 fold and 1.4 fold
[5]
  Fold of Basal RLU: 1.3 and 0.9 and 1
[6]
  Fold of Basal RLU: 1.2 and 0.9 and 1
[7]
  Fold of Basal RLU: 1.4 and 1 and 1.5 and 0.8
[8]
  Fold of Basal RLU: 1.4 and 0.7 and 1.1 and 0.8
[9]
  Fold of Basal RLU: 1 fold and 1.9 fold and 1.2 fold
[10]
  Fold of Basal RLU: 0.6 and 0.7 and 0.9 and 0.5
[11]
  Fold of Basal RLU: 0.5 and 0.4 and 0.6
[12]
  Fold of Basal RLU: 0.4 and 0.5 and 0.8
[13]
  Fold of Basal RLU: 1.2 and 1 and 1.1
[14]
  Fold of Basal RLU: 0.6 and 0.8 and 1.1
[15]
  Fold of Basal RLU: 1.3 and 1.1 and 0.7
[16]
  Fold of Basal RLU: 0.7 and 0.6
[17]
  Fold of Basal RLU: 1.2 and 1 and 0.7 and 0.8
[18]
  Fold of Basal RLU: 1.8 fold and 1.6 fold and 2.9 fold

## Cc1cc(C(=O)NC(C)(c2ccco2)c2ccco2)nn1-c1cccc(C(F)(F)F)c1 [‘4936]
[19]
  Fold of Basal RLU: 0.5 fold and 0.9 fold and 0.7 fold and 0.8 fold
[20]
  Fold of Basal RLU: 0.6 and 0.8 and 1.1
[21]
  Fold of Basal RLU: 0.5 fold and 0.9 fold and 0.6 fold
[22]
  Fold of Basal RLU: 1 fold and 1.1 fold and 0.9 fold
[23]
  Fold of Basal RLU: 0.5 and 0.6 and 0.3
[24]
  Fold of Basal RLU: 0.7 fold and 1 fold
[25]
  Fold of Basal RLU: 0.8 and 1.2 and 0.6
[26]
  Fold of Basal RLU: 1 and 1.2 and 1.1 and 0.6
[27]
  Fold of Basal RLU: 0.9 fold and 1.4 fold and 1.3 fold
[28]
  Fold of Basal RLU: 1.5 fold and 0.9 fold and 1 fold
[29]
  Fold of Basal RLU: 0.9 and 1.1 and 1.7 and 1.3
[30]
  Fold of Basal RLU: 1.6 and 1.3
[31]
  Fold of Basal RLU: 0.4 and 0.5
[32]
  Fold of Basal RLU: 1.2 fold and 1.4 fold and 0.8 fold
[33]
  Fold of Basal RLU: 1.4 fold and 2 fold and 2.5 fold and 2.8 fold
[34]
  Fold of Basal RLU: 0.8 fold and 0.7 fold and 0.6 fold
[35]
  Fold of Basal RLU: 1.1 and 0.9
[36]
  Fold of Basal RLU: 1.8 and 2.2 and 1.2 and 1.7
[37]
  Fold of Basal RLU: 1.2 and 1.9 and 1.3

Source: article PMC11882969 (Nature Communications, 2025)
